Experimental data published in ChEMBL document CHEMBL3301472, “MMV Malaria Box HIV and cytotoxicity screening”.

Tests used:
[1] = MMV: MTT Cytotoxicity Assay Day 3 pi, U87-CD4-CCR5 cells, % cell death @ 5mM compound; type: toxicity, cell-based; conditions: human, u87-cd4-ccr5, 5000 µM
[2] = MMV: MTT Cytotoxicity Assay Day 3 pi, U87-CD4-CXCR4 cells, % cell death @ 5mM compound; type: toxicity, cell-based; conditions: human, u87-cd4-cxcr4, 5000 µM
[3] = MMV: MTT Cytotoxicity Assay Day 7 pi of Assay #6 (compound washed out Day 1 pi), U87-CD4-CCR5 cells, % cell death @ 5mM compound; type: toxicity, cell-based; conditions: human, u87-cd4-ccr5, 5000 µM
[4] = MMV: MTT Cytotoxicity Assay Day 7 pi of Assay #7 (compound washed out Day 1 pi), U87-CD4-CXCR4 cells, % cell death @ 5mM compound; type: toxicity, cell-based; conditions: human, u87-cd4-cxcr4, 5000 µM
[5] = test system: Human immunodeficiency virus 1; experiment: MMV: HIV NL4-3 CXCR4-tropic replication-competent virus, NO washout, P24 ELISA Day 7 pi, U87-CD4-CXCR4, % inhibition at 5 mM compound; type: functional; design: dose or concentration left out as unconfirmed; conditions: Human immunodeficiency virus 1, NL4-3, U87.CD4.CXCR4, 168 h
[6] = MMV: MTT Cytotoxicity Assay Day 7 pi of Assay #10 (NO washout), U87-CD4-CCR5 cells, % cell death @ 5mM compound; type: toxicity, cell-based; conditions: human, u87-cd4-ccr5, 5000 µM
[7] = MMV: MTT Cytotoxicity Assay Day 7 pi of Assay #11 (NO washout), U87-CD4-CXCR4 cells, % cell death @ 5mM compound; type: toxicity, cell-based; conditions: human, u87-cd4-cxcr4, 5000 µM
[8] = test system: Human immunodeficiency virus 1; experiment: MMV: HIV JRFL CCR5-tropic replication-competent virus, virus & compound washed out Day 1 pi, P24 ELISA Day 7 pi, U87-CD4-CCR5, % inhibition at 5 mM compound; type: functional; design: dose or concentration left out as unconfirmed; conditions: Human immunodeficiency virus 1, JR-FL
[9] = test system: Human immunodeficiency virus 1; experiment: MMV: HIV NL4-3 CXCR4-tropic replication-competent virus, virus & compound washed out Day 1 pi, P24 ELISA Day 7 pi, U87-CD4-CXCR4, % inhibition at 5 mM compound; type: functional; design: dose or concentration left out as unconfirmed; conditions: Human immunodeficiency virus 1, NL4-3, U87.CD4.CXCR4
[10] = test system: Human immunodeficiency virus 1; experiment: MMV: HIV CXCR4-tropic env NL4-3 pseudovirus assay produces luciferase signal in lieu of replicating viral particles Day 3 pi, U87-CD4-CXCR4, % inhibition at 5 mM compound; type: functional; design: dose or concentration left out as unconfirmed; conditions: Human immunodeficiency virus 1, NL4-3, U87.CD4.CXCR4, 72 h
[11] = test system: Human immunodeficiency virus 1; experiment: MMV: HIV CXCR4-tropic env HxB2 pseudovirus assay produces luciferase signal in lieu of replicating viral particles Day 3 pi, U87-CD4-CXCR4, % inhibition at 5 mM compound; type: functional; design: dose or concentration left out as unconfirmed; conditions: Human immunodeficiency virus 1, HxB2, U87.CD4.CXCR4, 72 h

CCCC(c1nnnn1C1CCCCC1)N1CCN(C(=O)c2ccco2)CC1.Cl (stereo unspecified)
% Cell Death [1]: -3
% Cell Death [2]: 12
% Cell Death [3]: -14
% Cell Death [4]: -21
inhibition [5]: 7%
% Cell Death [6]: -2
% Cell Death [7]: 34

COCCn1c(C)nc2ccccc2c1=O
% Cell Death [1]: 23
% Cell Death [2]: 19
inhibition [8]: 3%
inhibition [9]: 2%
% Cell Death [3]: -8
% Cell Death [4]: 11
% Cell Death [6]: 14
% Cell Death [7]: 32

CCCc1c(C)nc2ccc(Br)cc2c1O
% Cell Death [1]: 4
% Cell Death [2]: 29
inhibition [9]: 5%
% Cell Death [3]: -7
% Cell Death [4]: 7
% Cell Death [6]: 25
% Cell Death [7]: 27

CCN(CC)CCNc1ccnc2cc3ccccc3cc12.O=P(O)(O)O
% Cell Death [1]: 33
% Cell Death [2]: 28
inhibition [8]: 9%
inhibition [9]: -1%
% Cell Death [3]: -26
% Cell Death [4]: -15
% Cell Death [6]: 10
% Cell Death [7]: -36

O=C(Nc1nc(-c2ccccn2)cs1)c1ccccc1Br
% Cell Death [1]: -1
% Cell Death [2]: 28
inhibition [9]: 4%
% Cell Death [3]: -13
% Cell Death [4]: -6
% Cell Death [6]: 118
% Cell Death [7]: 85

COC(=O)c1ccc(C2C3=C(O)CC(c4ccc(F)cc4)CC3=Nc3ccccc3N2C(=O)c2ccccc2)cc1 (stereo unspecified)
% Cell Death [1]: -1
% Cell Death [2]: 33
inhibition [9]: -1%
% Cell Death [3]: 39
% Cell Death [4]: 12
% Cell Death [6]: 18
% Cell Death [7]: -29

CCOc1ccc(Nc2c3ccccc3nc3ccccc23)cc1.Cl
inhibition [10]: 2%
inhibition [11]: 5%
% Cell Death [1]: 47
% Cell Death [2]: 1
% Cell Death [3]: 34
% Cell Death [4]: 42
% Cell Death [6]: 43
% Cell Death [7]: 95

C=CCc1c(C)nc2ccccc2c1O
% Cell Death [1]: 4
% Cell Death [2]: 36
inhibition [9]: 4%
% Cell Death [3]: -8
% Cell Death [4]: 38
% Cell Death [6]: 109
% Cell Death [7]: 50

O=C(O)C1Cc2c([nH]c3ccccc23)C(c2ccc(Cl)cc2Cl)N1 (stereo unspecified)
% Cell Death [1]: 10
% Cell Death [2]: 11
inhibition [9]: 0%
% Cell Death [3]: 15
% Cell Death [4]: -34
% Cell Death [6]: 27
% Cell Death [7]: -2

COc1ccc(NC(=O)C2c3ccccc3C(=O)N(CC(C)C)C2c2cccs2)cc1 (stereo unspecified)
% Cell Death [1]: 16
% Cell Death [2]: 13
inhibition [8]: 3%
inhibition [9]: 6%
% Cell Death [3]: -1
% Cell Death [4]: -38
% Cell Death [6]: -9
% Cell Death [7]: -27

Cc1cccc(N2C(=O)C3C(C2=O)C2(c4ccccc4)C(=O)C3(c3ccccc3)C(c3ccc4c(c3)OCO4)=C2c2ccc3c(c2)OCO3)c1 (stereo unspecified)
% Cell Death [1]: 4
% Cell Death [2]: 35
inhibition [9]: 3%
% Cell Death [3]: 4
% Cell Death [4]: -2
% Cell Death [6]: 0
% Cell Death [7]: -20

O=C1c2ccc3c4c(ccc(c24)C(=O)N1CCCCO)C(=O)N(CCCCO)C3=O
% Cell Death [1]: 39
% Cell Death [2]: 27
% Cell Death [3]: 16
% Cell Death [4]: -43
inhibition [5]: 2%
% Cell Death [6]: 61
% Cell Death [7]: -30

CC(C)(C)CC(C)(C)NCC(O)COc1ccc2c(c1)CCC2.Cl (stereo unspecified)
inhibition [10]: -1%
inhibition [11]: 4%
% Cell Death [1]: -4
% Cell Death [2]: 10
% Cell Death [3]: 2
% Cell Death [4]: -11
% Cell Death [6]: -10
% Cell Death [7]: 7

CCOc1cc(Cl)c(C(C)NC(=O)c2ccccc2)cc1OCC (stereo unspecified)
% Cell Death [1]: 28
% Cell Death [2]: 34
inhibition [8]: 0%
inhibition [9]: 1%
% Cell Death [3]: -4
% Cell Death [4]: -6
% Cell Death [6]: 15
% Cell Death [7]: 90

CCCCCCC(O)(c1ccc(F)cc1)C(CN1CCOCC1)c1ccccc1.Cl (stereo unspecified)
% Cell Death [1]: 13
% Cell Death [2]: 12
inhibition [9]: 8%
% Cell Death [3]: 3
% Cell Death [4]: -17
% Cell Death [6]: -2
% Cell Death [7]: -35

COc1cccc(Cn2c(Oc3ccccc3)nc3c2c(=O)n(C)c(=O)n3C)c1
% Cell Death [1]: -1
% Cell Death [2]: 15
% Cell Death [3]: 32
% Cell Death [4]: 3
inhibition [5]: 9%
% Cell Death [6]: 39
% Cell Death [7]: 32

Cc1c(C)n(CC(O)CNC2CCCCC2C)c2ccccc12 (stereo unspecified)
% Cell Death [1]: -17
% Cell Death [2]: 18
% Cell Death [3]: -11
% Cell Death [4]: -17
inhibition [5]: 7%
% Cell Death [6]: -14
% Cell Death [7]: -68

CC(C)(C)c1ccc(C(=O)Nc2c3c(nn2-c2cccc(Cl)c2)CSC3)cc1
% Cell Death [1]: 7
% Cell Death [2]: -37
inhibition [9]: 7%
% Cell Death [3]: 2
% Cell Death [4]: -2
% Cell Death [6]: 7
% Cell Death [7]: 1

CC(C)CCNCC(O)Cn1c2ccccc2c2ccccc21.Cl (stereo unspecified)
% Cell Death [1]: 6
% Cell Death [2]: 32
% Cell Death [3]: -10
% Cell Death [4]: -6
inhibition [5]: 1%
% Cell Death [6]: -11
% Cell Death [7]: -6

O=C(CCc1ccco1)NC1CCN(CC2(c3ccc(Cl)cc3)CCC2)CC1
% Cell Death [1]: 18
% Cell Death [2]: 38
inhibition [9]: 1%
% Cell Death [3]: 2
% Cell Death [4]: 24
% Cell Death [6]: 109
% Cell Death [7]: 97

O=[N+]([O-])c1ccc(C=NNc2nc3ccccc3[nH]2)cc1
% Cell Death [1]: 32
% Cell Death [2]: 6
inhibition [9]: 0%
% Cell Death [3]: 28
% Cell Death [4]: -15
% Cell Death [6]: 38
% Cell Death [7]: 22

COc1ccc(C2Sc3ccccc3N=C3C2=C(O)c2ccccc23)cc1 (stereo unspecified)
% Cell Death [1]: 0
% Cell Death [2]: 10
inhibition [8]: 7%
inhibition [9]: 7%
% Cell Death [3]: 7
% Cell Death [4]: -32
% Cell Death [6]: 17
% Cell Death [7]: 3

OC(Cn1nnc2ccccc21)Cn1c2ccc(Br)cc2c2cc(Br)ccc21 (stereo unspecified)
% Cell Death [1]: 15
% Cell Death [2]: -29
inhibition [8]: -2%
inhibition [9]: 1%
% Cell Death [3]: 2
% Cell Death [4]: 8
% Cell Death [6]: 27
% Cell Death [7]: 18

O=C(Nc1ccccc1O)c1ccc(Oc2cccc(C(=O)Nc3ccccc3O)c2)cc1
% Cell Death [1]: 43
% Cell Death [2]: 4
inhibition [9]: 0%
% Cell Death [3]: 17
% Cell Death [4]: -12
% Cell Death [6]: 28
% Cell Death [7]: -20

COc1cc(C(=O)Nc2nc3c(cc4c5c(cccc53)CC4)s2)cc(OC)c1OC
inhibition [11]: 0%
% Cell Death [1]: 105
% Cell Death [2]: 56
% Cell Death [3]: 42
% Cell Death [4]: 68
% Cell Death [6]: 136
% Cell Death [7]: 110

Oc1c(CN2CCN(c3ccccc3F)CC2)cc(Br)c2cccnc12
inhibition [11]: 1%
% Cell Death [1]: 43
% Cell Death [2]: 51
% Cell Death [3]: 53
% Cell Death [4]: 51
% Cell Death [6]: 92
% Cell Death [7]: 34

O=C(NCc1ccco1)C1CCN(S(=O)(=O)c2ccc(Br)cc2)CC1
inhibition [11]: 8%
% Cell Death [1]: 14
% Cell Death [2]: 32
% Cell Death [3]: 5
% Cell Death [4]: -9
% Cell Death [6]: -12
% Cell Death [7]: -5

OC(CNC1CCCCC1)Cn1c2ccc(I)cc2c2cc(I)ccc21 (stereo unspecified)
inhibition [11]: 3%
% Cell Death [1]: 27
% Cell Death [2]: 25
inhibition [8]: 3%
% Cell Death [3]: 3
% Cell Death [4]: -9
% Cell Death [6]: -2
% Cell Death [7]: 26

CCOc1cc2c(cc1OCC)C(c1cc(Cl)c(O)c(OCC)c1)NCC2 (stereo unspecified)
% Cell Death [1]: -45
% Cell Death [2]: 15
inhibition [9]: 3%
% Cell Death [3]: 8
% Cell Death [4]: -20
% Cell Death [6]: 21
% Cell Death [7]: 38

COc1ccc(C(=O)Nc2ccc3nc(N4CCCCC4)cc(C)c3c2)cc1OC
% Cell Death [1]: 108
% Cell Death [2]: 23
inhibition [9]: 5%
% Cell Death [3]: 78
% Cell Death [4]: 16
% Cell Death [6]: 91
% Cell Death [7]: 106

c1ccc(-c2ccc(-c3nc4ccccc4[nH]3)cc2)cc1
% Cell Death [1]: 12
% Cell Death [2]: 6
inhibition [9]: -1%
% Cell Death [3]: 16
% Cell Death [4]: -19
% Cell Death [6]: 11
% Cell Death [7]: 70
